Measurements: EP3483233A1, “LUBRICANT BASE OIL COMPOSITIONS OF MONO-UNSATURATED DIBASIC ACID ESTERS WITH BRANCHED ALCOHOLS” (ARKEMA FRANCE, priority 2017, dated 2019)
Where “and” joins values, the source holds several entries; their conditions need not be identical. Identical values can stand only once.

What was measured:
Assay type in all cases: physicochemical
[1] = Kinematic viscosity with capillary Cannon-Fenske viscometers; Viscosity Index calculated per ASTM D2270; settings: for Viscosity Index: calculated per ASTM D2270 from viscosities at 40°C and 100°C; for Viscosity, mm^2/s at 40°C: kinematic viscosity at 40°C; for Viscosity, mm^2/s at 100°C: kinematic viscosity at 100°C
Description: Kinematic viscosities at 40°C and 100°C were measured using capillary Cannon-Fenske viscometers per ASTM […]. Viscosity Index (the value, describing the rate of thinning with increasing temperature) was calculated per ASTM D2270.

[2] = Pour point and cloud point, cooling regime of ASTM D97; settings: for low temperature fluidity: result in words; for Cloud point, °C: visual inspection during the same run
Description: Pour points and cloud points were determined using the same thermal cooling regime, as instructed by ASTM D97. The sample sizes were 5 to 15 mL during the measurements.
Cloud points were determined during the same run by visual inspection of the sample appearance at low temperature. The samples were removed from the freezer every 3°C for visual inspection and, if cloudy, meniscus movement with inversion. The pour point resembled the last measurement, at which the meniscus boundary was still moving within 5 seconds of horizontal inversion. All samples were tested in duplicate.
In engine oils and hydraulic fluids, low temperature fluidity is primarily determined by pour points [ASTM D97]. Generally, pour points below -30°C are considered sufficient. Some polymer additives, e.g. "Pour Point Depressants" (PPD), are able to improve low temperature fluidity. […] Therefore, initially pour points and cloud points [ASTM D2500 "Standard Test Method for Cloud Point of Petroleum Products and Liquid Fuels"] of α-ω dibasic esters were evaluated and shown in Table 4.

[3] = Thin film test, volatile losses (500 µm oil film on steel coupon, forced-draft oven, gravimetric); settings: 500 µm thick films at 120°C
Source text: (§1) The exact procedure, used here, has been described in detail by Stoncius, A. et al. in "Volatiles from Thin Film Degradation of Bio-based, Synthetic and Mineral Basestocks", published in Industrial Lubrication & Tribology, 2013, 65 (3) 209-215, 2013, Emerald Group Publishing Edition or by Brazinskiene, D. et al. in "Ester Basestock Vaporisation from Thin Oil Films", published in Lubrication Science, DOI: 10.1002/ls.1372, pp 1-17, 2017, Wiley Edition.
(§2) Briefly, an oil film of 500 µm thickness was coated on steel coupon and heated at given temperature for specific duration in a forced-draft oven. Afterwards, the volatile losses and insoluble residues were measured gravimetrically.
As discussed in the prior-art review, volatility can be successfully evaluated in a thin film test as described by Stoncius, A. et al. in "Volatiles from Thin Film Degradation of Bio-based, Synthetic and Mineral Basestocks" published in Industrial Lubrication & Tribology, 2013, 65 (3) 209-215, Emerald Group Publishing Edition or by Brazinskiene, D. et al. in "Ester Basestock Vaporisation from Thin Oil Films" published in Lubrication Science, DOI: 10.1002/ls.1372, pp 1-17, 2017, Wiley Edition. This thin-film method is much better suited for hydraulic fluid applications than NOACK or other tests, which employ 250°C or similar temperatures, related to engine oil applications. Also, the above method accounts for longer term decomposition reactions due to exposure to metal surfaces and oxidation, which is prevalent in hydraulic applications. Therefore, using the thin-film method short-term vapor losses were measured after 16 hrs and decomposition trends were compared after 36 hrs of testing. Heating temperature of 120°C was selected to compare thin films of α,ω dibasic esters with commercial basestocks. Table 5. Volatile emissions, % w/w from 500 µm thick films of α-ω dibasic esters and commercial basestocks at 120°C

[4] = Thin film test, oxidative stability (time to insoluble residues and to solidification); settings: 500 µm thick films at 120°C; for Vapor loss at solidification: at the duration of full film solidification
Source text: as §1, §2
Therefore, thin films of commercial basestocks and α-ω dibasic esters were compared by exposing their thin films to 120°C as described by Stoncius, A. et al. in "Volatiles from Thin Film Degradation of Bio-based, Synthetic and Mineral Basestocks" published in Industrial Lubrication & Tribology, 2013, 65 (3), 209-215, Emerald Group Publishing Edition or by Brazinskiene, D. et al. in "Ester Basestock Vaporisation from Thin Oil Films" published in Lubrication Science, DOI: 10.1002/ls.1372, pp 1-17, 2017, Wiley Edition.
The thin-film method determines how resistant oil is against formation of insoluble residues during oxidation. Degradation durations until initial formation of solid residues and complete solidification directly relate to oxidative stability.

[5] = Solubility of lubricant additives in the basestocks
Description: Several typical lubricant additives have been tested for solubility in α-ω dibasic esters of 2-ethyl hexanol 26U18 and 26S12 as well as commercial basestock 350N. The additives were mixed in at temperatures of 50°C or lower and held for longer than a week at room temperature. Table 7. Solubility of lubricant additives, dissolved in α-ω dibasic esters and commercial basestocks
The additives were selected to represent different chemical categories: soaps, heterocycles, phosphorous derivatives, polymers, etc. Most of these additives are designed to be dissolved in paraffinic mineral oils and synthetic lubricants with some heating. It is often thought that esters are better solvents than mineral oils or synthetic hydrocarbons like poly α-olefins. Therefore, the tested concentrations were much higher than additive proportions for hydraulic fluids, as recommended by the additive manufacturers.

Compound | Viscosity Index [1] | Viscosity, mm^2/s at 40°C [1] | Viscosity, mm^2/s at 100°C [1] | Pour point, °C [2] | low temperature fluidity [2] | Cloud point, °C [2] | Volatile emissions, 16 hrs [3] | Volatile emissions, 36 hrs [3] | Full solidification observed [4] | Initial residues observed [4] | Vapor loss at solidification [4] | Solubility of 1% w/w Vanlube 7723 ([5]; Alkyl dithiocarbamate, mixed in at 50°C or lower, held longer than a week at room temperature) | Solubility of 1% w/w Irgalube ML605A ([5]; Amine and phosphate derivatives, mixed in at 50°C or lower, held longer than a week at room temperature) | Solubility of 1% w/w Vanlube 7611 M ([5]; Phosphoro dithioate, mixed in at 50°C or lower, held longer than a week at room temperature) | Solubility of 5% w/w Viscoplex 10-310 ([5]; Poly alkyl methacrylate, mixed in at 50°C or lower, held longer than a week at room temperature) | Solubility of 2% w/w Vanlube RI- A ([5]; Soap and ester derivatives, mixed in at 50°C or lower, held longer than a week at room temperature) | Solubility of 1% w/w Cobratec TT-100 ([5]; Tolyl triazole, mixed in at 50°C or lower, held longer than a week at room temperature) | Initial solution appearance ([5]; all tested additives blended in, unchanged after 1 week at room temperature)
CCCCCCC(C)OC(=O)CCCCCCCCCCCCCCCCC(=O)OC(C)CCCCCC (stereo not drawn) [17S18, 1,18-di(1-methylheptyl) octadecanedioate, reference compound] | 180 | 22.7 mm^2/s | 5.31 mm^2/s | +9 °C | very problematic low temperature fluidity | +9 °C | – | – | – | – | – | – | – | – | – | – | – | –
CCCCCCC(CCCC)COC(=O)CCCCCCCC=CCCCCCCCC(=O)OCC(CC)CCCC (stereo not drawn) [4826U18, 1-(2-butyloctyl)-18-(2-ethylhexyl)octadec-9-enedioate] | 205 | 28.97 mm^2/s | 6.78 mm^2/s | -51 °C | – | -51 °C | 3.8 % w/w | 10.1 % w/w | 325 h | 248 h | 57% w/w | – | – | – | – | – | – | –
1,18-di(2-ethylhexyl) octadec-9-enedioate [26U18] | 197 | 22.74 mm^2/s | 5.53 mm^2/s | -57 °C | – | -36 °C | 5.5 % w/w | 10.7 % w/w | 320 h | 248 h | 57% w/w | soluble | soluble | soluble | soluble | soluble | soluble | bright and clear
1-(3,7,11,15-tetra methyl-2-hexadecenyl) - 18-(2-ethylhexyl) octadec-9-enedioate [2026U18] | 175 | 42.54 mm^2/s | 8.3 mm^2/s | -66 °C | – | -63 °C | 6.7 % w/w | 13.4 % w/w | 176 h | 152 h | 39% w/w | – | – | – | – | – | – | –
1,18-di(3,3,5-trimethylhexyl) octadec-9-enedioate [9U18] | 202 | 28.8 mm^2/s | 6.7 mm^2/s | -33 °C | – | -33 °C | 5 % w/w | 13.9 % w/w | 367 h | 344 h | 71% w/w | – | – | – | – | – | – | –
1,18-di(1-methylheptyl) octadec-9-enedioate [17U18] | 205 | 21.2 mm^2/s | 5.35 mm^2/s | -21 °C | much poorer low temperature fluidity | -18 °C | 0.87 % w/w | 7 % w/w | 463 h | 343 h | 63% w/w | – | – | – | – | – | – | –
CCCCC(CC)COC(=O)CCCCCCCCCCCCCCCCC(=O)OCC(CC)CCCC (stereo not drawn) [26S18, 1,18-di(2-ethylhexyl) octadecanedioate, reference compound] | 194 | 23.9 mm^2/s | 5.71 mm^2/s | -9 °C | very problematic low temperature fluidity | -9 °C | – | – | – | – | – | – | – | – | – | – | – | –
1,18-di(3-methylbutyl) octadec-9-enedioate [5U18] | 196 | 12.93 mm^2/s | 3.73 mm^2/s | -24 °C | – | -24 °C | 12.6 % w/w | 23.7 % w/w | 225 h | 152 h | 66% w/w | – | – | – | – | – | – | –
1,18-dimethyl octadec-9-enedioate [1U18] | 204 | 8.68 mm^2/s | 2.85 mm^2/s | > +15 °C | much poorer low temperature fluidity | > +15 °C | 9.4 % w/w | 25.6 % w/w | 344 h | 248 h | – | – | – | – | – | – | – | –
1,18-di(2-propylheptyl) octadec-9-enedioate [37U18] | 174 | 28.7 mm^2/s and 28.74 mm^2/s | 6.39 mm^2/s | -51 °C | – | -51 °C | 3.5 % w/w | 10.6 % w/w | 324 h | 248 h | 54% w/w | – | – | – | – | – | – | –
1,9-di(2-ethylhexyl) nonanedioate [26S9, reference compound] | 111 | 10.5 mm^2/s | 2.8 mm^2/s | -57 °C | – | -38 °C | 2.65 % w/w | 4.7 % w/w | 553 h | 367 h | 92% w/w | – | – | – | – | – | – | –
1,18-di(2-butyloctyl) octadec-9-enedioate [48U18] | 163 | 36.09 mm^2/s | 7.09 mm^2/s | -54 °C | – | -48 °C | 1.7 % w/w | 9.8 % w/w | 320 h | 248 h | 47% w/w | – | – | – | – | – | – | –
